How the values were obtained:
Melatonin receptor = Melatonin receptor (Gallus gallus, UniProt P49288+P51050+P49285); test: Binding affinity towards melatonin receptor, determined in chicken brain membranes using [2-125I]melatonin; assay type: cell membranes, Membrane
Melanophore [1] = test: Effective concentration required to produce 50% of the maximal pigment aggregation in Xenopus laevis dermal melanophore cell line; assay type: functional, cell-based, frog
Melanophore [2] = test: Inhibitory concentration against melatonin-induced pigment aggregation by 50% in Xenopus laevis dermal melanophore cell line; assay type: functional, cell-based, frog
Melanophore [3] = test: Effective concentration required to produce 50% of the maximal pigment aggregation in Xenopus laevis dermal melanophore cell line; No agonist effect detected at 100 uM; assay type: functional, cell-based, frog

SMILES | Ki (Melatonin receptor) | EC50 (Melanophore [1]; Xenopus laevis, Melanophore) | IC50 (Melanophore [2]) | EC50 (Melanophore [3]) | EC50 (Melanophore [1]; melanophore)
CCC(=O)NCC1CCCc2c1c1ccccc1n2C (centres undefined) | 204 nM | 862 nM | Not Active | – | –
COc1ccc2c(c1)c1c(n2C)CCCCC1CNC(C)=O (centres undefined) | 24 nM | 258 nM | 10000 nM | – | –
CCC(=O)NCC1CCCc2c1c1cc(OC(F)(F)F)ccc1n2C (centres undefined) | 40.2 nM | 733 nM | 6000 nM | – | –
CC(=O)NCC1CCc2c1c1ccccc1n2C (centres undefined) | 516 nM | 6360 nM | Not Active | – | –
Cn1c2c(c3cc(Cl)ccc31)C(CNC(=O)C1CC1)CCC2 (centres undefined) | 131.6 nM | 1510 nM | 33000 nM | – | –
CC(=O)NCC1CCCc2c1c1cc(Cl)ccc1n2C (centres undefined) | 2.12 nM | 5.2 nM | Not Active | – | –
CCCC(=O)NCC1CCc2c1c1cc(OC)ccc1n2C (centres undefined) | 23 nM | 335 nM | 14000 nM | – | –
CCCC(=O)NCC1CCCc2c1c1cc(OC)ccc1n2C (centres undefined) | 0.378 nM | 0.44 nM | Not Active | – | –
CC(=O)NCC1CCCc2c1c1cc(C)ccc1n2C (centres undefined) | 16.1 nM | 108 nM | Not Active | – | –
CCC(=O)NCC1CCCc2c1c1cc(C)ccc1n2C (centres undefined) | 7.66 nM | 128 nM | Not Active | – | –
CCCCC(=O)NCC1CCCc2c1c1ccccc1n2C (centres undefined) | > 10000 nM | – | 17000 nM | Not Active | –
CCCCC(=O)NCC1CCCCc2c1c1ccccc1n2C (centres undefined) | 8300 nM | – | 42000 nM | Not Active | –
Cc1ccc2c(c1)c1c(n2C)CCCC1CNC(=O)C1CCC1 (centres undefined) | 555 nM | 1450 nM | Not Active | – | –
COc1ccc2c(c1)c1c(n2C)CCCCC1CNC(=O)C1CC1 (centres undefined) | 44.7 nM | 470 nM | 43000 nM | – | –
CCC(=O)NCC1CCCc2c1c1cc(CC)ccc1n2C (centres undefined) | 27.5 nM | 305 nM | 62000 nM | – | –
COc1ccc2c(c1)c1c(n2C)CCCC1CNC(=O)C1CCC1 (centres undefined) | 271 nM | 139 nM | Not Active | – | –
CC(=O)NCC1CCCc2c1c1cc(OC(F)(F)F)ccc1n2C (centres undefined) | 141.7 nM | 2030 nM | 42000 nM | – | –
CCCCC(=O)NCC1CCCc2c1c1cc(OC)ccc1n2C (centres undefined) | 82 nM | 132 nM | Not Active | – | –
CCCC(=O)NCC1CCCc2c1c1ccccc1n2C (centres undefined) | 215 nM | 966 nM | Not Active | – | –
COc1ccc2c(c1)c1c(n2C)CCC1CNC(C)=O (centres undefined) | 161 nM | 423 nM | Not Active | – | –
COc1ccc2c(c1)c1c(n2C)CCCC1CNC(=O)C(F)(F)F (centres undefined) | 1.98 nM | 2.1 nM | Not Active | – | –
COc1ccc2c(c1)c1c(n2C)CCCC1CNC(=O)C1CC1 (centres undefined) | 30 nM | 119 nM | 48000 nM | – | –
CC(=O)NCC1CCCc2c1c1ccccc1n2C (single isomer, unassigned; (-)) | 40 nM | – | – | – | 189 nM
CC(=O)NCC1CCCc2c1c1ccccc1n2C (stereo in doubt; 9a) | 227 nM | – | Not Active | – | 599 nM
COc1ccc2[nH]cc(CCNC(C)=O)c2c1 [MELATONIN] | – | 0.23 nM | Not Active | – | –

The next lines start with the values.

Ki (Melatonin receptor) | EC50 (Melanophore [1]; Xenopus laevis, Melanophore) | IC50 (Melanophore [2]) | EC50 (Melanophore [3]) | EC50 (Melanophore [1]; melanophore) | SMILES
1.44 nM | 0.31 nM | Not Active | – | – | CCC(=O)NCC1CCCc2c1c1cc(OC)ccc1n2C (centres undefined)
– | 7 nM | Not Active | – | – | CCC(=O)NC1CCc2[nH]c3ccc(OC)cc3c2C1 (centres undefined)
143 nM | 195 nM | Not Active | – | – | COc1ccc2[nH]c3c(c2c1)CC(NC(=O)C1CC1)CC3 (centres undefined)
– | – | 43000 nM | Not Active | – | O=C(NC1CCc2[nH]c3ccccc3c2C1)C(F)(F)F (centres undefined)
– | 25 nM | Not Active | – | – | CCCC(=O)NC1CCc2[nH]c3ccc(OC)cc3c2C1 (centres undefined)
– | – | 39000 nM | Not Active | – | O=C(CBr)NC1CCc2[nH]c3ccccc3c2C1 (centres undefined)
– | 32 nM | 11000 nM | – | – | COc1ccc2[nH]c3c(c2c1)CC(NC(=O)CBr)CC3 (centres undefined)
– | 12600 nM | Not Active | – | – | CCCC(=O)NC1CCc2[nH]c3ccccc3c2C1 (centres undefined)
– | 32 nM | Not Active | – | – | COc1ccc2[nH]c3c(c2c1)CC(NC(C)=O)CC3 (centres undefined)
– | 3270 nM | Not Active | – | – | CCC(=O)NC1CCc2[nH]c3ccccc3c2C1 (centres undefined)
– | 32 nM | Not Active | – | – | COc1ccc2[nH]c3c(c2c1)CC(NC(=O)C(F)(F)F)CC3 (centres undefined)
– | – | 64000 nM | Not Active | – | CC(=O)NC1CCc2[nH]c3ccccc3c2C1 (centres undefined)
243 nM | – | Not Active | – | 789 nM | CCC(=O)NCC1CCc2c1c1cc(OC)ccc1n2C (single isomer, unassigned; (+))
48.4 nM | – | – | – | 14.8 nM | COc1ccc2c(c1)c1c(n2C)CCCC1CNC(C)=O (single isomer, unassigned; (+))
1.7 nM | – | – | – | 3.4 nM | CCC(=O)NCC1CCc2c1c1cc(OC)ccc1n2C (single isomer, unassigned; (-))
0.372 nM | – | – | – | 0.3 nM | COc1ccc2c(c1)c1c(n2C)CCCC1CNC(C)=O (single isomer, unassigned; (-))
– | – | Not Active | – | 0.7 nM | COc1ccc2c(c1)c1c(n2C)CCCC1CNC(C)=O (stereo in doubt; 9g)
16 nM | – | – | – | 408 nM | CCC(=O)NCC1CCc2c1c1cc(OC)ccc1n2C (stereo in doubt; 10i)
6.5 nM | – | – | – | 118 nM | CCC(=O)NCC1CCCCc2c1c1cc(OC)ccc1n2C (stereo in doubt; 11i(-))

Reference: ChEMBL document CHEMBL1131339 (J Med Chem, 1998)
